The text below walks through data of US20180208563A1, “THERMOD[…] CRYSTAL MODIFICATION OF 2-CHLORO-3-(METHYLSULFANYL)-N-(1-METHYL-1H-TETRAZOL-5-YL)-4-(TRIFLUOROMETHYL)BENZAMIDE” (BAYER CROPSCIENCE AKTIENGESELLSCHAFT, priority 2015, published 2018).

The structures appear in SMILES notation.

Series [1] in a line: Stability tests: storage of an oil dispersion. The series is classed as physicochemical. As to conditions: after several weeks of storage, compared to an oil dispersion of the benzamide prepared according to WO 2012/028579 A1.
Series [2] is described as follows: Testing in practice of suspension formulations (crystal growth). The series is classed as physicochemical. Particulars: suspension formulations with finely ground solid benzamide; spontaneously or over a longer period. From the text:
The benzamide known for example from WO 2012/028579 A1 (example No. 4-638 in table 4 therein) has herbicidal properties and is suitable for the production of crop protection compositions which can be employed for weed control. However, it has been shown that the benzamide preparable according to the disclosure of WO 2012/028579 A1 is not suitable for the production of user-friendly administration forms. User-friendly administration forms are, for example, suspension formulations in which the benzamide is present finely ground in solid form. […] The crystal growth can occur spontaneously or over a longer period and cannot be predicted.

Turning to `CSc1c(C(F)(F)F)ccc(C(=O)Nc2nnnn2C)c1Cl` [crystal modification II, 2-chloro-3-(methylsulfanyl)-N-(1-methyl-1H-tetrazol-5-yl)-4-(trifluoromethyl)benzamide], the “signs of clumping and precipitation on storage” value in series [1] is “no signs of clumping and precipitation”. As to `CSc1c(C(F)(F)F)ccc(C(=O)Nc2nnnn2C)c1Cl` [2-chloro-3-(methylsulfanyl)-N-(1-methyl-1H-tetrazol-5-yl)-4-(trifluoromethyl)benzamide], the “crystal growth, clumping and precipitation in suspension formulations” value in series [2] was “crystal growth in suspension formulations and consequently to clumping and precipitation”.
